Patent publication US20240299698A1, “PREVENTION AND TREATMENT OF POST-OPERATIVE COGNITIVE DYSFUNCTION (POCD)” (Noetix Pharma LLC, priority 2022, published 2024)

Columns and labels:
[1] = Body weight monitoring after surgery; format: in vivo, Male C57BI/6 mice; details: Acute and Chronic dose groups vs controls
Experimental: Mice were weighed 24 hours after arrival, weekly prior to the initiation of pirfenidone administration, and then daily throughout the remainder of the study. Post-induction, animals were assessed daily to monitor body condition, pain response, and general recovery parameters. • Test System: Male C57BI/6 mice • Number of Animals/Group: 12 animals per group (total of 48 mice) • Age: Cohort 1: 12 weeks at arrival • Cohort 2: 10 weeks at arrival • Model Induction: Performed at 14 weeks of age • Weight: 31.6±0.42 SEM g at time of surgery • Allocation: Animals were pseudo-randomly assigned to treatment groups balanced for weight • Health inspection: A health inspection was performed by a clinical veterinarian prior to the commencement of the study.
Mice were weighed 24 hours after arrival, weekly prior to the initiation of Test Article administration, and then daily throughout the remainder of the study.

[2] = test system: hippocampal microglial cells; assay: Evaluation of hippocampal microglial cell morphology (Iba1 immunohistochemistry); format: in vivo, Male C57BI/6 mice; details: for Iba1-positive microglial cell morphology (activated characteristics), rank 0-2: 8 days post-surgery, n=8
Experimental: A subset of mice was evaluated to compare acute and chronic treatment of pirfenidone paradigms against Normal Control and Disease Control tissues (n=8/treatment group). A neuroinflammation marker, ionizing calcium binding adaptor molecule 1 (Iba1), was investigated in the hippocampus as an indication of the level of inflammatory response. The hippocampus is particularly vulnerable to both acute and chronic stressors, including those triggered by physical trauma.
The right hemispheres of a subsection of study mice were evaluated via fluorescent IHC analysis to investigate the impact of laparotomy and drug intervention on hippocampal inflammatory mechanisms. Iba1 was assessed as a marker of neuroinflammation because it is indicative of inflammatory response in the central nervous system.
Cryoprotected hemispheres were blocked in OCT compound (Thermofisher) and stored at −80° C. until sectioning. […]
• To obtain micrographs for quantification • Fluorescent microscope (Zeiss Axio Observer Z1) Apotome.2 imaging system Zeiss imaging software (Zen 2 Blue edition) • Settings were manually selected to allow visualization of signal on all sections (signal must be visible on low intensity sections but must not be overexposed on high intensity sections). […]
Ionized calcium-binding adapter molecule 1 (Iba1) is a microglia-specific calcium-binding protein that participates in phagocytosis in activated microglia. […] Iba1 is thus a sensitive marker of inflammation and is quantified by measuring the intensity of the Iba1 positive signal. […]
Hippocampal tissue from the right hemispheres was evaluated for functional cell morphology using non-parametric rank ordering of tissue as follows: • 0=normal morphology (ramified, mostly ramified) • 1=moderate morphology (ramified-activated) • 2=activated morphology (activated, activated ameboid, ameboid)

[3] = Stability of pirfenidone dose preparation in vehicle; format: physicochemical; details: 0.9% saline
Experimental: • Vehicle: 0.9% saline • Working concentration: 66.67 mg/ml • Preparation: Add 1000 mg of pirfenidone to 15 mL of 0.9% saline • Stability in vehicle: Stable for a minimum of 8 days
• Vehicle: 0.9% saline • Working concentration: 33.33 mg/mL • Preparation: Add 12 mL of high dose pirfenidone to 12 mL of 0.9% saline • Stability in vehicle: Stable for a minimum of 8 days

[4] = Macias-Barragan J, et al.; cited from earlier work

Stability in vehicle ([3]; 33.33 mg/mL (low dose)): ≥ 8 days
Stability in vehicle ([3]; 66.67 mg/ml (high dose)): ≥ 8 days
SMILES: Cc1ccc(=O)n(-c2ccccc2)c1 [pirfenidone, 5-methyl-1-phenyl-2-(1H)-pyridone]
weight loss at 24 hours post-surgery [1]: did not differ between groups
Iba1-positive microglial cell morphology (activated characteristics), rank 0-2 ([2]; Acute): reduced this microglial activation
Iba1-positive microglial cell morphology (activated characteristics), rank 0-2 ([2]; Chronic): reduced this microglial activation
microglial activation in the hippocampus (summary) ([2]; summary statement, regimen not distinguished): reduced microglial activation in the hippocampus
crossing of the blood brain barrier [4]: can cross the blood brain barrier
